Laboratory results from US20240299352A1, “COMBINATION THERAPIES WITH SETD2 INHIBITORS” (Epizyme, Inc., priority 2021, published 2024).

Tests used:
[1] = tested on: diffuse large B-cell lymphoma (DLBCL) cell lines; test: Co-treatment combination study with Cpd. No. 15, further cell lines (Table F), CellTiter-Glo viability, Loewe Volume; assay type: cell-based; settings: for Combination effect with Cpd. No. 15 (Loewe Volume class), Ri1: co-treatment with Cpd. No. 15, cell line Ri1 (Cat. No. 96090512-1VL); for Combination effect with Cpd. No. 15 (Loewe Volume class), TMD8: co-treatment with Cpd. No. 15, cell line TMD8 (Cat. No. M-097); for Combination effect with Cpd. No. 15 (Loewe Volume class), WILL1: co-treatment with Cpd. No. 15, cell line WILL1 (Cat. No. ACC 651)
Summary of the method: (§1)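 Viability after combined dosing was assessed through ATP content by CellTiter-Glo following a 7-day co-incubation of MCL or DLBCL cells with both compounds.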

[2] = tested on: SUDHL10; test: Co-treatment combination study with Cpd. No. 15, CellTiter-Glo viability, Loewe Volume; assay type: cell-based; settings: in combination with Cpd. No. 15; 5-Day Cotreatment; DLBCL cell line SUDHL10
[3] = tested on: DB; test: as above; assay type: cell-based; settings: in combination with Cpd. No. 15, seven days, DLBCL cell line DB
Summary of the method: as §1

[4] = tested on: MINO; test: as above; assay type: cell-based; settings: in combination with Cpd. No. 15, seven days, mantle cell lymphoma cell line MINO (CRL-3000)
Summary of the method: as §1

[5] = tested on: REC1; test: as above; assay type: cell-based; settings: in combination with Cpd. No. 15, seven days, mantle cell lymphoma cell line REC1 (CRL-3004)
Summary of the method: as §1

[6] = tested on: GRANTA519; test: as above; assay type: cell-based; settings: in combination with Cpd. No. 15, seven days, mantle cell lymphoma cell line GRANTA519 (ACC 342)
Summary of the method: as §1

[7] = tested on: SUDHL6; test: as above; assay type: cell-based; settings: in combination with Cpd. No. 15, seven days, DLBCL cell line SUDHL6
Summary of the method: as §1

[8] = tested on: SUDHL5; test: as above; assay type: cell-based; settings: in combination with Cpd. No. 15, seven days, DLBCL cell line SUDHL5
Summary of the method: as §1

[9] = tested on: JVM2; test: as above; assay type: cell-based; settings: in combination with Cpd. No. 15, seven days, mantle cell lymphoma cell line JVM2 (CRL-3002)
Summary of the method: as §1

[10] = tested on: KARPAS422; test: as above; assay type: cell-based; settings: in combination with Cpd. No. 15, seven days, DLBCL cell line KARPAS422
Summary of the method: as §1

[11] = tested on: SUDHL4; test: as above; assay type: cell-based; settings: in combination with Cpd. No. 15, seven days, DLBCL cell line SUDHL4
Summary of the method: as §1

[12] = tested on: WSUNHL; test: as above; assay type: cell-based; settings: in combination with Cpd. No. 15, seven days, DLBCL cell line WSUNHL
Summary of the method: as §1

[13] = tested on: DOHH2; test: as above; assay type: cell-based; settings: in combination with Cpd. No. 15, seven days, DLBCL cell line DOHH2
Summary of the method: as §1

[14] = tested on: RL; test: as above; assay type: cell-based; settings: in combination with Cpd. No. 15; 6-Day Cotreatment; DLBCL cell line RL
[15] = tested on: SUDHL2; test: as above; assay type: cell-based; settings: in combination with Cpd. No. 15, seven days, DLBCL cell line SUDHL2
Summary of the method: as §1

[16] = tested on: Pfeiffer; test: as above; assay type: cell-based; settings: in combination with Cpd. No. 15, seven days, DLBCL cell line Pfeiffer
Summary of the method: as §1

[17] = tested on: SUDHL8; test: as above; assay type: cell-based; settings: in combination with Cpd. No. 15, seven days, DLBCL cell line SUDHL8
Summary of the method: as §1

[18] = tested on: WILL2; test: as above; assay type: cell-based; settings: in combination with Cpd. No. 15, seven days, DLBCL cell line WILL2
Summary of the method: as §1

[19] = tested on: MAVER1; test: as above; assay type: cell-based; settings: in combination with Cpd. No. 15, seven days, mantle cell lymphoma cell line MAVER1 (CRL-3008)
Summary of the method: as §1

[20] = tested on: TOLEDO; test: as above; assay type: cell-based; settings: in combination with Cpd. No. 15, seven days, DLBCL cell line TOLEDO
Summary of the method: as §1

[21] = tested on: WSUDLCL2; test: as above; assay type: cell-based; settings: in combination with Cpd. No. 15, seven days, DLBCL cell line WSUDLCL2
Summary of the method: as §1

[22] = tested on: HT; test: as above; assay type: cell-based; settings: in combination with Cpd. No. 15, seven days, DLBCL cell line HT
Summary of the method: as §1

[23] = tested on: JEKO1; test: as above; assay type: cell-based; settings: in combination with Cpd. No. 15, seven days, mantle cell lymphoma cell line JEKO1 (CRL-3006)
Summary of the method: as §1

[24] = tested on: Z138; test: as above; assay type: cell-based; settings: in combination with Cpd. No. 15, seven days, mantle cell lymphoma cell line Z138 (CRL-3001)
Summary of the method: as §1

[25] = tested on: diffuse large B-cell lymphoma (DLBCL) cell lines; test: Pre-treatment model combination study with Cpd. No. 15 (7 days pre-treatment, then combination; Table G), CellTiter-Glo viability, Loewe Volume; settings: 7 days pre-treatment with Cpd. No. 15, then combination; for Combination effect with Cpd. No. 15 (Loewe Volume class), Farage: cell line Farage (Cat. No. CRL-2630); for Combination effect with Cpd. No. 15 (Loewe Volume class), HT: cell line HT (Cat. No. CRL-2631); for Combination effect with Cpd. No. 15 (Loewe Volume class), OCILY7: cell line OCILY7 (Cat. No. ACC 688); for Combination effect with Cpd. No. 15 (Loewe Volume class), SUDHL4: cell line SUDHL4 (Cat. No. ACC 495)

C=CC(=O)N1CCC([C@@H]2CCNc3c(C(N)=O)c(-c4ccc(Oc5ccccc5)cc4)nn32)CC1 [Zanubrutinib, zanubrutinib]
Combination effect with Cpd. No. 15 (Loewe Volume class), Ri1 [1]: Synergy (VLoewe>1: synergy) | Combination effect with Cpd. No. 15 (Loewe Volume class), TMD8 [1]: Synergy (VLoewe>1: synergy) | Combination effect with Cpd. No. 15 (Loewe Volume class), WILL1 [1]: No Effect | Combination effect (Loewe Volume) SUDHL10 [2]: No Effect | Combination effect (Loewe Volume) DB [3]: No Effect | Combination effect (Loewe Volume) MINO [4]: Synergy (VLoewe>1: synergy) | Combination effect (Loewe Volume) REC1 [5]: Additivity (between 1 and −1: additivity) | Combination effect (Loewe Volume) GRANTA519 [6]: Additivity (between 1 and −1: additivity) | Combination effect (Loewe Volume) SUDHL6 [7]: Synergy (VLoewe>1: synergy) | Combination effect (Loewe Volume) SUDHL5 [8]: No Effect | Combination effect (Loewe Volume) JVM2 [9]: Additivity (between 1 and −1: additivity) | Combination effect (Loewe Volume) KARPAS422 [10]: No Effect | Combination effect (Loewe Volume) SUDHL4 [11]: Synergy (VLoewe>1: synergy) | Combination effect (Loewe Volume) WSUNHL [12]: Additivity (between 1 and −1: additivity) | Combination effect (Loewe Volume) DOHH2 [13]: Synergy (VLoewe>1: synergy) | Combination effect (Loewe Volume) RL [14]: No Effect | Combination effect (Loewe Volume) SUDHL2 [15]: No Effect | Combination effect (Loewe Volume) Pfeiffer [16]: No Effect | Combination effect (Loewe Volume) SUDHL8 [17]: No Effect | Combination effect (Loewe Volume) WILL2 [18]: Additivity (between 1 and −1: additivity) | Combination effect (Loewe Volume) MAVER1 [19]: Synergy (VLoewe>1: synergy) | Combination effect (Loewe Volume) TOLEDO [20]: Additivity (between 1 and −1: additivity) | Combination effect (Loewe Volume) WSUDLCL2 [21]: Additivity (between 1 and −1: additivity) | Combination effect (Loewe Volume) HT [22]: No Effect | Combination effect (Loewe Volume) JEKO1 [23]: Synergy (VLoewe>1: synergy) | Combination effect (Loewe Volume) Z138 [24]: No Effect | Combination effect with Cpd. No. 15 (Loewe Volume class), Farage [25]: Synergy (VLoewe>1: synergy) | Combination effect with Cpd. No. 15 (Loewe Volume class), HT [25]: Synergy (VLoewe>1: synergy) | Combination effect with Cpd. No. 15 (Loewe Volume class), OCILY7 [25]: Synergy (VLoewe>1: synergy) | Combination effect with Cpd. No. 15 (Loewe Volume class), SUDHL4 [25]: Synergy (VLoewe>1: synergy)

CC#CC(=O)N1CCC[C@H]1c1nc(-c2ccc(C(=O)Nc3ccccn3)cc2)c2c(N)nccn12 [Acalabrutinib, acalabrutinib]
Combination effect with Cpd. No. 15 (Loewe Volume class), Ri1 [1]: Synergy (VLoewe>1: synergy) | Combination effect with Cpd. No. 15 (Loewe Volume class), TMD8 [1]: Synergy (VLoewe>1: synergy) | Combination effect with Cpd. No. 15 (Loewe Volume class), WILL1 [1]: No Effect | Combination effect (Loewe Volume) SUDHL10 [2]: No Effect | Combination effect (Loewe Volume) DB [3]: No Effect | Combination effect (Loewe Volume) MINO [4]: Synergy (VLoewe>1: synergy) | Combination effect (Loewe Volume) REC1 [5]: Additivity (between 1 and −1: additivity) | Combination effect (Loewe Volume) GRANTA519 [6]: Additivity (between 1 and −1: additivity) | Combination effect (Loewe Volume) SUDHL6 [7]: Synergy (VLoewe>1: synergy) | Combination effect (Loewe Volume) SUDHL5 [8]: No Effect | Combination effect (Loewe Volume) JVM2 [9]: Additivity (between 1 and −1: additivity) | Combination effect (Loewe Volume) KARPAS422 [10]: No Effect | Combination effect (Loewe Volume) SUDHL4 [11]: No Effect | Combination effect (Loewe Volume) WSUNHL [12]: No Effect | Combination effect (Loewe Volume) DOHH2 [13]: No Effect | Combination effect (Loewe Volume) RL [14]: No Effect | Combination effect (Loewe Volume) SUDHL2 [15]: No Effect | Combination effect (Loewe Volume) Pfeiffer [16]: No Effect | Combination effect (Loewe Volume) SUDHL8 [17]: No Effect | Combination effect (Loewe Volume) WILL2 [18]: Additivity (between 1 and −1: additivity) | Combination effect (Loewe Volume) MAVER1 [19]: Synergy (VLoewe>1: synergy) | Combination effect (Loewe Volume) TOLEDO [20]: No Effect | Combination effect (Loewe Volume) WSUDLCL2 [21]: Additivity (between 1 and −1: additivity) | Combination effect (Loewe Volume) HT [22]: No Effect | Combination effect (Loewe Volume) JEKO1 [23]: Synergy (VLoewe>1: synergy) | Combination effect (Loewe Volume) Z138 [24]: No Effect | Combination effect with Cpd. No. 15 (Loewe Volume class), Farage [25]: Synergy (VLoewe>1: synergy) | Combination effect with Cpd. No. 15 (Loewe Volume class), HT [25]: No Effect | Combination effect with Cpd. No. 15 (Loewe Volume class), OCILY7 [25]: No Effect | Combination effect with Cpd. No. 15 (Loewe Volume class), SUDHL4 [25]: No Effect | Combination effect with Cpd. No. 15 (Loewe Volume class), WILL2 ([25]; cell line WILL2 (Cat. No. ACC 652)): No Effect
